US20210048443A1, “METHOD FOR DIAGNOSING HAEMOSTASIS DISORDERS USING ACTIVATED CHARCOAL” (UNIVERSITÉ DE NAMUR ASBL, priority 2018, published 2021)

Columns and labels:
platelet-poor plasma [1] = test: Prothrombin Time (PT) assay on plasma with DOACs; type: biochemical; conditions: for Effect on PT of platelet-poor plasma: increasing concentrations of DOACs, no charcoal (FIG. 2b)
Method: (§1) For the preparation of such plasma samples, blood components of a blood sample from a patient are typically separated by two centrifugation steps, both at 2500 g for 15 min (FIG. 1). The first centrifugation step will separate the blood in solid substances (e.g. red and white blood cells) (i.e. the lower phase) and blood plasma (i.e. upper phase). Subsequently, the blood plasma is collected and submitted to a second centrifugation step, which pelletizes the residual blood cells and/or platelets. The upper phase obtained by the second centrifugation step (i.e. platelet-poor plasma) can be used for haemostatic tests. However, the platelet-poor plasma obtained by standard methods will comprise direct anticoagulants (e.g. DOACs), if the patient is treated therewith, which may interfere with several clotting times tests (Table 1).
(§2) A blood sample obtained from a subject was centrifuged at 2500 g during 15 min to separate the blood into solid substances (e.g. red and white blood cells) (i.e. lower phase) and blood plasma (i.e. upper phase).
(§3) The plasma obtained from the first (and only) centrifugation step was incubated with activated charcoal (10 mg/ml of plasma) for 5 minutes and the plasma was subsequently recovered from the activated charcoal by passing the plasma through a filter with 0.65 μm pores (FIG. 3). Passing the plasma through the filter was achieved by a short centrifugation.
(§4) The plasma sample was incubated with different concentrations of activated charcoal (i.e. 5 mg/ml, 10 mg/ml or 15 mg/ml) for 5 minutes and the plasma was subsequently recovered from the activated charcoal by passing the plasma through a filter with 0.65 μm pores and activated charcoal by a short centrifugation.

aPTT/clotting factors = test: aPTT/clotting factors, interference of direct oral anticoagulants; type: biochemical; conditions: arrow grades, key not given; all factors affected
Description: (§5) Coagulation tests or assays most affected by the presence of anticoagulants in the plasma sample will be the tests that involve the clotting factor to which the coagulation inhibitor is directed, leading to false-positive or false-negative results (Table 1).

Protein S activity = Protein S activity assay, interference of direct oral anticoagulants; type: biochemical; conditions: arrow grades; antigen-based assay unaffected, clot-based affected
Description: as §5

Lupus anticoagulant = Lupus anticoagulant test, interference of direct oral anticoagulants; type: biochemical; conditions: arrow grades; false positive due to high screen/confirmation assay ratios
Description: as §5

Protein C activity = Protein C activity assay, interference of direct oral anticoagulants; type: biochemical; conditions: arrow grades; chromogenic and antigen-based assays unaffected, clot-based affected
Description: as §5

platelet-poor plasma [2] = test: activated Partial Thromboplastin Time (aPTT) assay on plasma with DOACs; type: biochemical; conditions: for Effect on aPTT of platelet-poor plasma: increasing concentrations of DOACs, no charcoal (FIG. 2a)
Method: as §1, with “Standard tests for in vitro diagnosis of a haemostasis disorder, for example in hospital laboratories, are generally performed on plasma samples obtain from a patient. For” for “For”
as §2
as §3, with “centrifugation. The filter with 0.65 μm pores allowed to efficiently remove the activated charcoal and residual blood cells and/or platelets, which have a larger size than 0.65 μm, from the plasma with a minimal interference with blood coagulation tests.” for “centrifugation.”
as §4, with “Plasma was obtained by centrifuging once a blood sample obtained from a subject as described in Example 2. The” for “The”

patient's plasma = test: LA diagnostic assays (PTT LA, Staclot LA, DRVVT, DRVVT confirm) on patient's plasma; type: biochemical; conditions: platelet-poor plasma of patient treated with rivaroxaban (339 ng per ml), DRVVT confirm (FIG. 6)
Method: The efficacy of the method as disclosed herein was assessed in a clinical situation. […] For LA diagnosis, several in vitro diagnosis assays were performed on the patient's plasma, including Partial Thromboplastin Time-Lupus anticoagulant Screen (PTT LA), PTT LA confirm (Staclot LA), Dilute Russel Viper Venom Time screen (DRVVT) and DRVVT confirm.

Antithrombin activity = Antithrombin activity assay, interference of direct oral anticoagulants; type: biochemical; conditions: arrow grades
Description: as §5

PT/clotting factors = test: PT/clotting factors, interference of direct oral anticoagulants; type: biochemical; conditions: arrow grades, key not given; all factors affected
Description: as §5

APCR = APCR (activated protein C resistance) assay, interference of direct oral anticoagulants; type: biochemical; conditions: for Interference with APCR: arrow grades, aPTT-based assays are mostly affected
Description: as §5

[3] = human, in vivo

Row | rivaroxaban per ml of plasma in patient plasma sample [3] [ng per ml] | Compound | Effect of Rivaroxaban on PT after activated charcoal treatment (platelet-poor plasma [1]; activated charcoal 5, 10 or 15 mg/ml, 5 minutes, 0.65 μm filter, Rivaroxaban up to 1000 ng/ml (FIG. 5b)) | Effect on PT of platelet-poor plasma (platelet-poor plasma [1]) | Interference with aPTT/clotting factors (aPTT/clotting factors) | Interference with Protein S activity (Protein S activity) | Interference with Lupus anticoagulant (Lupus anticoagulant) | Interference with Protein C activity (Protein C activity) | Effect of Rivaroxaban on aPTT after activated charcoal treatment (platelet-poor plasma [2]; activated charcoal 5, 10 or 15 mg/ml, 5 minutes, 0.65 μm filter, Rivaroxaban up to 1000 ng/ml (FIG. 5a)) | Effect on aPTT of platelet-poor plasma (platelet-poor plasma [2]) | Clotting time in LA diagnostic assays, untreated plasma (patient's plasma) | Interference with Antithrombin activity (Antithrombin activity) | Interference with PT/clotting factors (PT/clotting factors) | Interference with Pefakit APCR Factor V Leiden (APCR; Pefakit APCR Factor V Leiden kit) | Interference with APCR (APCR)
1 | 339 | O=C(NC[C@H]1CN(c2ccc(N3CCOCC3=O)cc2)C(=O)O1)c1ccc(Cl)s1 [Rivaroxaban, 5-Chloro-N-({(5S)-2-oxo-3-[4-(3-oxo-4-morpholinyl)phenyl]-1,3-oxazolidin-5-yl}methyl)-2-thiophenecarboxamide] | completely removed | prolonged | ↓↓ | —/↑ | ↑/↑↑ | —/↑ | completely removed | prolonged | prolongs the clotting time | —/↑ | ↓↓/↓↓↓ | No interference | ↑
2 | – | COc1ccc(-n2nc(C(N)=O)c3c2C(=O)N(c2ccc(N4CCCCC4=O)cc2)CC3)cc1 [Apixaban, 1-(4-methoxyphenyl)-7-oxo-6-[4-(2-oxopiperidin-1-yl)phenyl]-4,5-dihydropyrazolo[3,4-c]pyridine-3-carboxamide] | – | prolonged | ↓/↓↓ | —/↑ | —/↑ | —/↑ | – | prolonged | – | —/↑ | ↓/↓↓ | – | ↑
3 | – | COc1ccc(NC(=O)c2ccc(C(=N)N(C)C)cc2)c(C(=O)Nc2ccc(Cl)cn2)c1 [Betrixaban] | – | prolonged | ↓↓ | – | – | – | – | prolonged | – | – | ↓↓ | – | –
4 | – | CN1CCc2nc(C(=O)N[C@@H]3C[C@@H](C(=O)N(C)C)CC[C@@H]3NC(=O)C(=O)Nc3ccc(Cl)cn3)sc2C1 [Edoxaban, N′-(5-chloropyridin-2-yl)-N-[(1S,2R,4S)-4-(dimethylcarbamoyl)-2-[(5-methyl-6,7-dihydro-4H-[1,3]thiazolo[5,4-c]pyridine-2-carbonyl)amino]cyclohexyl]oxamide] | – | – | ↓/↓↓ | ↑ | ↑/↑↑ | – | – | prolonged | – | —/↑ | ↓↓ | – | ↑
